Laboratory results taken from patent US9957271B2, “Substituted bicyclic aza-heterocycles and analogues as sirtuin modulators” (GlaxoSmithKline, LLC, priority 2012, dated 2018).

Biological target: T1, SIRT1 (Homo sapiens, UniProt Q96EB6)
T1 sequence (Q96EB6 1-747): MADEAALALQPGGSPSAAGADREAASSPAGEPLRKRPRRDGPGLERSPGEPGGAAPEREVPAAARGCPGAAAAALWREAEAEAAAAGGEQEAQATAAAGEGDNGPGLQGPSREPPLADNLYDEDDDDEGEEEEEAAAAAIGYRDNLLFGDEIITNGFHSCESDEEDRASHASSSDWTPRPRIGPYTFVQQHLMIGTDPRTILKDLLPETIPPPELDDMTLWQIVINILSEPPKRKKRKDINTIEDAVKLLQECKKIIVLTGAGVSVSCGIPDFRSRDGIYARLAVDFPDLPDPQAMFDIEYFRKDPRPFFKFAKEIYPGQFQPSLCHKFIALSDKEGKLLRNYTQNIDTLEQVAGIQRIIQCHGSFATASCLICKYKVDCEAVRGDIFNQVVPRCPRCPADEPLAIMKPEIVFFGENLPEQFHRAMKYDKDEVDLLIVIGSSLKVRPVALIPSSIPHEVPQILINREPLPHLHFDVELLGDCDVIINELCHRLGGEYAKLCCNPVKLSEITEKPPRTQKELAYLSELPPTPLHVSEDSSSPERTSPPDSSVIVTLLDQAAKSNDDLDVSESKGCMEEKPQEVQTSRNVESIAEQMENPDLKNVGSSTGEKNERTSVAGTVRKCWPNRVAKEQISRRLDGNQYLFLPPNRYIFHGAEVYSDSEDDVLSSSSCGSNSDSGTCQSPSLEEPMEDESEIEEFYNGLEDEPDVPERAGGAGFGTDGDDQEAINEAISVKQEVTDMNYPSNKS
Assay: Trp mass spectrometry assay of SIRT1 activity
Type: biochemical
Details: Trp assay; for Trp EC1.5 (μM): concentration giving 150% activation of SIRT1; for Emax: percent maximum fold activation, read-out: Trp % Fold Act
Source text: Mass spectrometry based assays were used to identify modulators of SIRT1 activity. The TAMRA based assay utilized a peptide having 20 amino acid residues as follows: Ac-EE-K(biotin)-[…](Ac)NleSTEG-K(5TMR)-EE-NH2 (SEQ ID NO: 1), wherein K(Ac) is an acetylated lysine residue and Nle is a norleucine. The peptide was labeled with the fluorophore 5TMR (excitation 540 nm/emission 580 nm) at the C-terminus. The sequence of the peptide substrate was based on p53 with several modifications. In addition, the methionine residue naturally present in the sequence was replaced with the norleucine because the methionine may be susceptible to oxidation during synthesis and purification. The Trp based assay utilized a peptide having an amino acid residues as follows: Ac-R-H-K-K(Ac)-W-NH2 (SEQ ID NO: 2).
The Trp mass spectrometry assay was conducted as follows. 0.5 μM peptide substrate and 120 μM βNAD^+ were incubated with 10 nM SIRT1 for 25 minutes at 25° C. in a reaction buffer (50 mM HEPES pH 7.5, […], 1 mM DTT, 0.05% BSA). The SIRT1 protein was obtained by cloning the SirT1 gene into a T7-promoter containing vector, which was then expressed in BL21(DE3) bacterial cells and purified as described in further detail below. Test compound was added at varying concentrations to this reaction mixture and the resulting reactions were monitored. After the 25 minute incubation with SIRT1, 10 μL of 10% formic acid was added to stop the reaction. The resulting reactions were sealed and frozen for later mass spec analysis. The relative SIRT1 activity was then determined by measuring the amount of O-acetyl-ADP-ribose (OAADPR) formed (or, alternatively, the amount of deacetylated Trp peptide generated) by the NAD-dependent sirtuin deacetylation reaction in the presence of varying concentrations of the test compound versus control reactions lacking the test compound. The degree to which the test agent activated deacetylation by SIRT1 was expressed as EC1.5 (i.e., the concentration of compound required to increase SIRT1 activity by 50% over the control lacking test compound), and Percent Maximum Activation (i.e., the maximum activity relative to control (100%) obtained for the test compound).
A control for inhibition of sirtuin activity was conducted by adding 1 μL of 500 mM nicotinamide as a negative control at the start of the reaction (e.g., permits determination of maximum sirtuin inhibition). A control for activation of sirtuin activity was conducted using 10 nM of sirtuin protein, with 1 μL of DMSO in place of compound, to determine the amount of deacetylation of the substrate at a given time point within the linear range of the assay. This time point was the same as that used for test compounds and, within the linear range, the endpoint represents a change in velocity.
For the above assay, SIRT1 protein was expressed and purified as follows. The SirT1 gene was cloned into a T7-promoter containing vector and transformed into BL21(DE3). The protein was expressed by induction with 1 mM IPTG as an N-terminal His-tag fusion protein at 18° C. overnight and harvested at 30,000×g. Cells were lysed with lysozyme in lysis buffer (50 mM Tris-HCl, 2 mM Tris[2-carboxyethyl]phosphine (TCEP), 10 μM ZnCl2, 200 mM NaCl) and further treated with sonication for […] for complete lysis. The protein was purified over a Ni-NTA column (Amersham) and fractions containing pure protein were pooled, concentrated and run over a sizing column (Sephadex S200 26/60 global). The peak containing soluble protein was collected and run on an Ion-exchange column (MonoQ). Gradient elution (200 mM-500 mM NaCl) yielded pure protein. This protein was concentrated and dialyzed against dialysis buffer (20 mM Tris-HCl, 2 mM TCEP) overnight. The protein was aliquoted and frozen at −80° C. until further use.

Compound	Trp EC1.5 (μM)	Emax
Cc1nc2ccc(N3CC[C@H](N(C)C)C3)nn2c1C(=O)Nc1cccnn1 [Compound 880]	B (EC1.5 1-25 μM)	< 350%
Cc1nc2ccc(N3CC[C@H](N(C)C)C3)nn2c1C(=O)Nc1ccncn1 [Compound 881]	C (EC1.5>25 μM)	< 350%
CN(C)[C@H]1CCN(c2ccc3ncc(C(=O)Nc4ccncn4)n3n2)C1 [Compound 882]	B (EC1.5 1-25 μM)	< 350%
O=C(Nc1ccncc1F)c1cnc2ccc(-c3cccc(OC[C@H](O)CO)c3)nn12 [Compound 883]	A (EC1.5<1 μM)	< 350%
O=C(Nc1ccc(F)cn1)c1cnc2ccc(-c3cccc(OC[C@H](O)CO)c3)nn12 [Compound 884]	B (EC1.5 1-25 μM)	< 350%
Cc1nc2ccc(N3CC[C@H](N(C)C)C3)nn2c1C(=O)Nc1ncccn1 [Compound 885]	B (EC1.5 1-25 μM)	< 350%
CN(C)[C@H]1CCN(c2ccc3ncc(C(=O)Nc4ncccn4)n3n2)C1 [Compound 886]	B (EC1.5 1-25 μM)	< 350%
O=C(Nc1cccnn1)c1cnc2ccc(-c3cccc(OC[C@H](O)CO)c3)nn12 [Compound 887]	A (EC1.5<1 μM)	< 350%
O=C(Nc1cncnc1)c1cnc2ccc(N3CC[C@H](F)C3)nn12 [Compound 888]	C (EC1.5>25 μM)	< 350%
Cc1cncc(NC(=O)c2cnc3ccc(N4CC[C@H](F)C4)nn23)c1 [Compound 889]	B (EC1.5 1-25 μM)	< 350%
Cc1nc(NC(=O)c2cnc3ccc(N4CC[C@H](F)C4)nn23)sc1C [Compound 892]	A (EC1.5<1 μM)	< 350%
Cc1cc(NC(=O)c2cnc3ccc(N4CC[C@H](F)C4)nn23)nc(C)n1 [Compound 893]	C (EC1.5>25 μM)	< 350%
O=C(Nc1cccnn1)c1cnc2ccc(N3CCCC3)nn12 [Compound 895]	C (EC1.5>25 μM)	< 350%
O=C(Nc1ccc(F)cn1)c1cnc2ccc(N3CCCC(C(F)(F)F)C3)nn12 (stereo not shown) [Compound 900]	A (EC1.5<1 μM)	< 350%
Cc1cncc(NC(=O)c2cnc3ccc(N4CCCC(C(F)(F)F)C4)nn23)c1 (stereo not shown) [Compound 901]	A (EC1.5<1 μM)	≥ 350%
O=C(Nc1cccnn1)c1cnc2ccc(N3CCC(F)(F)C3)nn12 [Compound 904]	B (EC1.5 1-25 μM)	≥ 350%
O=C(Nc1cccnc1)c1cnc2ccc(N3CCC(F)(F)C3)nn12 [Compound 908]	B (EC1.5 1-25 μM)	< 350%
O=C(Nc1ccccn1)c1cnc2ccc(N3CCC(F)(F)C3)nn12 [Compound 909]	B (EC1.5 1-25 μM)	≥ 350%
O=C(Nc1cccnc1)c1cnc2ccc(N3CC(F)(F)C3)nn12 [Compound 913]	B (EC1.5 1-25 μM)	< 350%
O=C(Nc1ccc(F)cn1)c1cnc2ccc(N3CC(F)(F)C3)nn12 [Compound 914]	C (EC1.5>25 μM)	< 350%
O=C(Nc1ccncc1F)c1cnc2ccc(N3CC(F)(F)C3)nn12 [Compound 915]	C (EC1.5>25 μM)	< 350%
O=C(Nc1cccnn1)c1cnc2ccc(N3CC(F)(F)C3)nn12 [Compound 916]	C (EC1.5>25 μM)	< 350%
O=C(Nc1cc(OC[C@@H](O)CO)cnn1)c1cnc2ccc(N3CC[C@H](F)C3)nn12 [Compound 917]	B (EC1.5 1-25 μM)	< 350%
O=C(Nc1ccc(C(F)(F)F)nc1)c1cnc2ccc(N3CC[C@H](F)C3)nn12 [Compound 919]	C (EC1.5>25 μM)	< 350%

Second part, the compound after the results:

Trp EC1.5 (μM)	Emax	Compound
B (EC1.5 1-25 μM)	< 350%	O=C(Nc1cncc(F)c1)c1cnc2ccc(N3CC[C@H](F)C3)nn12 [Compound 890]
B (EC1.5 1-25 μM)	≥ 350%	Cn1ccc(NC(=O)c2cnc3ccc(N4CC[C@H](F)C4)nn23)n1 [Compound 891]
B (EC1.5 1-25 μM)	< 350%	O=C(Nc1ccncn1)c1cnc2ccc(N3CCCC3)nn12 [Compound 894]
B (EC1.5 1-25 μM)	< 350%	O=C(Nc1cccnc1)c1cnc2ccc(N3CCCC3)nn12 [Compound 896]
C (EC1.5>25 μM)	< 350%	O=C(Nc1ccc(F)cn1)c1cnc2ccc(N3CCCC3)nn12 [Compound 897]
C (EC1.5>25 μM)	< 350%	O=C(Nc1ccncc1F)c1cnc2ccc(N3CCCC3)nn12 [Compound 898]
A (EC1.5<1 μM)	≥ 350%	O=C(Nc1cccnn1)c1cnc2ccc(N3CCCC(C(F)(F)F)C3)nn12 (stereo not shown) [Compound 902]
C (EC1.5>25 μM)	< 350%	O=C(Nc1ccncc1F)c1cnc2ccc(N3CCC(F)(F)C3)nn12 [Compound 903]
B (EC1.5 1-25 μM)	< 350%	O=C(Nc1cnccn1)c1cnc2ccc(N3CCC(F)(F)C3)nn12 [Compound 905]
B (EC1.5 1-25 μM)	< 350%	O=C(Nc1ccncn1)c1cnc2ccc(N3CCC(F)(F)C3)nn12 [Compound 906]
B (EC1.5 1-25 μM)	< 350%	O=C(Nc1ccc(F)cn1)c1cnc2ccc(N3CCC(F)(F)C3)nn12 [Compound 907]
A (EC1.5<1 μM)	≥ 350%	O=C(Nc1cncc(F)c1)c1cnc2ccc(N3CCCC(C(F)(F)F)C3)nn12 (stereo not shown) [Compound 910]
A (EC1.5<1 μM)	≥ 350%	CN(C)c1cccc(NC(=O)c2cnc3ccc(N4CC[C@H](F)C4)nn23)n1 [Compound 911]
B (EC1.5 1-25 μM)	< 350%	O=C(Nc1ccccn1)c1cnc2ccc(N3CC(F)(F)C3)nn12 [Compound 912]
B (EC1.5 1-25 μM)	< 350%	COc1nccc(NC(=O)c2cnc3ccc(N4CC[C@H](F)C4)nn23)n1 [Compound 918]
B (EC1.5 1-25 μM)	< 350%	Cc1ccc(NC(=O)c2cnc3ccc(N4CC[C@H](F)C4)nn23)cn1 [Compound 920]
C (EC1.5>25 μM)	< 350%	O=C(Nc1ccncn1)c1cnc2ccc(N3CC(F)(F)C3)nn12 [Compound 921]
